Values quoted from earlier work as cited in US9857359B2, “Methods for determining drug efficacy using cereblon-associated proteins” (CELGENE CORPORATION, priority 2012, dated 2018).

Biological target: CRBN (Homo sapiens, UniProt Q96SW2)
Conditions: in vitro; Ito et al., Science 2010; cited from earlier work

Sequence of CRBN (Q96SW2 whole entry): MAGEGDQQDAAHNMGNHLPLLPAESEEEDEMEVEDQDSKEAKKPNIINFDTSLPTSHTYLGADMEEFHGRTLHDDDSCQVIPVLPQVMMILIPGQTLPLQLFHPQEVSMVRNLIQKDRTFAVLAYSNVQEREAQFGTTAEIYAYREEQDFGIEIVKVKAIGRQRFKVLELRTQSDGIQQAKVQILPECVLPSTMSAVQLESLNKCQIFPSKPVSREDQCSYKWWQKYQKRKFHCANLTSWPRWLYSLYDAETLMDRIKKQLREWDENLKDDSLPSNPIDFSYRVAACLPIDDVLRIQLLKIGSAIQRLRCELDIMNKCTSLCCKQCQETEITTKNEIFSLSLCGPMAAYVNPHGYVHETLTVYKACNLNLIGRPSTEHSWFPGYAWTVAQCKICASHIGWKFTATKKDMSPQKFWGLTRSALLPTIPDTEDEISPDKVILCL
Sequence of CRBN (Q16531 whole entry partner): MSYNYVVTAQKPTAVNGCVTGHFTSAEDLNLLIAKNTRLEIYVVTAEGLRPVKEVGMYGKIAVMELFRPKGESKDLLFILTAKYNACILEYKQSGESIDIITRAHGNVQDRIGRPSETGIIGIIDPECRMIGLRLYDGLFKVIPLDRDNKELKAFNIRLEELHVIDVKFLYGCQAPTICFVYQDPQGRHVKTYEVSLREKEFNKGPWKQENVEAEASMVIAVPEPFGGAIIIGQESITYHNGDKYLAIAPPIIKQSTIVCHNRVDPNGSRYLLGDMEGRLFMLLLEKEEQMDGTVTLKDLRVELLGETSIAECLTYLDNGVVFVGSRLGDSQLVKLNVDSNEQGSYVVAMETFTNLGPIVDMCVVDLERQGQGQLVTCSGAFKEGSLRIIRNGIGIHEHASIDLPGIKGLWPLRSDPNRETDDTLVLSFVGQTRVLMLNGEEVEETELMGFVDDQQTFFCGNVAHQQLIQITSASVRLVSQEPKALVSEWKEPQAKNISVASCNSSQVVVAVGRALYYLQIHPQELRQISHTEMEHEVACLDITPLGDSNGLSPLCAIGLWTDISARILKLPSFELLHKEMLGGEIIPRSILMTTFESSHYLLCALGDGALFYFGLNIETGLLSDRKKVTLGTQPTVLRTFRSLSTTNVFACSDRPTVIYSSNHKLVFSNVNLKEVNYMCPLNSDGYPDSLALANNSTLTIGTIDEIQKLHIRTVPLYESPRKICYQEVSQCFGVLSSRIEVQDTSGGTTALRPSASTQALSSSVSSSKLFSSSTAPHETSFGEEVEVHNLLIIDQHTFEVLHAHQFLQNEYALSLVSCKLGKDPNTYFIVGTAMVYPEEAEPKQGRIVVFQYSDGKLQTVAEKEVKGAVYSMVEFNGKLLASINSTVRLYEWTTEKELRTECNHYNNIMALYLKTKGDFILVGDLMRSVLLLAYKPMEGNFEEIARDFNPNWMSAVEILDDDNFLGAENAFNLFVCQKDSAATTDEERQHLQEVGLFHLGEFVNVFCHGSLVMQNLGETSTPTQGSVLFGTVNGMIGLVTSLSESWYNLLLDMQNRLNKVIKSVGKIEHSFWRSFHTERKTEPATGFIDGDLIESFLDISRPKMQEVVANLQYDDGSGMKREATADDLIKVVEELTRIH
Sequence of CRBN (Q13619 whole entry partner): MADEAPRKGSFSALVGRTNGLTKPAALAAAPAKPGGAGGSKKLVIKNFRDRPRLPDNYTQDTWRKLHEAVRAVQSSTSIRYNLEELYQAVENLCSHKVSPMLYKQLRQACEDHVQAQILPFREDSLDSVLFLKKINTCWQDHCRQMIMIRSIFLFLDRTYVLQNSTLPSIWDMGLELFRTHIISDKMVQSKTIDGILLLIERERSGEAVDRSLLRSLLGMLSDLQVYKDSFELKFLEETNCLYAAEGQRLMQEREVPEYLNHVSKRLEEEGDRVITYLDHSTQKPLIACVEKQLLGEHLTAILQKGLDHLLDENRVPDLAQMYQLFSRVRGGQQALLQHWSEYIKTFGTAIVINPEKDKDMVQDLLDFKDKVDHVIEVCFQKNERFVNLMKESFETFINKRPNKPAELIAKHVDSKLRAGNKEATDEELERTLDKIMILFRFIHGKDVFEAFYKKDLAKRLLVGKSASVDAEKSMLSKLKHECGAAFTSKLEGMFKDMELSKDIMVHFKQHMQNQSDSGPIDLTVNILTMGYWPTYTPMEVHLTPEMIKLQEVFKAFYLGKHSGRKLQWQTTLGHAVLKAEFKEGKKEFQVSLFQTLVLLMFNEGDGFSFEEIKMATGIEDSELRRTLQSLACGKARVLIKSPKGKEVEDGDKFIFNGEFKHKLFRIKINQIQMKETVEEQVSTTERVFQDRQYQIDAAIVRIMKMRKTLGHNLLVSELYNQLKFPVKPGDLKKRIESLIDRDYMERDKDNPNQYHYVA
Sequence of CRBN (P62877 whole entry partner): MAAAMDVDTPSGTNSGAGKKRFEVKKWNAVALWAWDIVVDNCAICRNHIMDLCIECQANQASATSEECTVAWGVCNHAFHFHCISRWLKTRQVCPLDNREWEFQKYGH

For `O=C1CCC(N2C(=O)c3ccccc3C2=O)C(=O)N1` (stereo not shown) [thalidomide], the “Auto-ubiquitination of CRBN” value is listed as “inhibit auto-ubiquitination of CRBN in vitro”.
